What follows are compounds tested against T1, Full-length USP19 (Homo sapiens, UniProt O94966) (assay: USP19 fluorescence polarisation (FP) homogeneous assay with Ubiquitin-Lys-TAMRA substrate). Conditions: 2.5 nM USP19, 30 min pre-incubation, average of at least two duplicate experiments.
T1 construct: Full-length USP19 was purchased from Boston Biochem (E-576); purchased Boston Biochem E-576
T1 sequence (O94966 1-1318): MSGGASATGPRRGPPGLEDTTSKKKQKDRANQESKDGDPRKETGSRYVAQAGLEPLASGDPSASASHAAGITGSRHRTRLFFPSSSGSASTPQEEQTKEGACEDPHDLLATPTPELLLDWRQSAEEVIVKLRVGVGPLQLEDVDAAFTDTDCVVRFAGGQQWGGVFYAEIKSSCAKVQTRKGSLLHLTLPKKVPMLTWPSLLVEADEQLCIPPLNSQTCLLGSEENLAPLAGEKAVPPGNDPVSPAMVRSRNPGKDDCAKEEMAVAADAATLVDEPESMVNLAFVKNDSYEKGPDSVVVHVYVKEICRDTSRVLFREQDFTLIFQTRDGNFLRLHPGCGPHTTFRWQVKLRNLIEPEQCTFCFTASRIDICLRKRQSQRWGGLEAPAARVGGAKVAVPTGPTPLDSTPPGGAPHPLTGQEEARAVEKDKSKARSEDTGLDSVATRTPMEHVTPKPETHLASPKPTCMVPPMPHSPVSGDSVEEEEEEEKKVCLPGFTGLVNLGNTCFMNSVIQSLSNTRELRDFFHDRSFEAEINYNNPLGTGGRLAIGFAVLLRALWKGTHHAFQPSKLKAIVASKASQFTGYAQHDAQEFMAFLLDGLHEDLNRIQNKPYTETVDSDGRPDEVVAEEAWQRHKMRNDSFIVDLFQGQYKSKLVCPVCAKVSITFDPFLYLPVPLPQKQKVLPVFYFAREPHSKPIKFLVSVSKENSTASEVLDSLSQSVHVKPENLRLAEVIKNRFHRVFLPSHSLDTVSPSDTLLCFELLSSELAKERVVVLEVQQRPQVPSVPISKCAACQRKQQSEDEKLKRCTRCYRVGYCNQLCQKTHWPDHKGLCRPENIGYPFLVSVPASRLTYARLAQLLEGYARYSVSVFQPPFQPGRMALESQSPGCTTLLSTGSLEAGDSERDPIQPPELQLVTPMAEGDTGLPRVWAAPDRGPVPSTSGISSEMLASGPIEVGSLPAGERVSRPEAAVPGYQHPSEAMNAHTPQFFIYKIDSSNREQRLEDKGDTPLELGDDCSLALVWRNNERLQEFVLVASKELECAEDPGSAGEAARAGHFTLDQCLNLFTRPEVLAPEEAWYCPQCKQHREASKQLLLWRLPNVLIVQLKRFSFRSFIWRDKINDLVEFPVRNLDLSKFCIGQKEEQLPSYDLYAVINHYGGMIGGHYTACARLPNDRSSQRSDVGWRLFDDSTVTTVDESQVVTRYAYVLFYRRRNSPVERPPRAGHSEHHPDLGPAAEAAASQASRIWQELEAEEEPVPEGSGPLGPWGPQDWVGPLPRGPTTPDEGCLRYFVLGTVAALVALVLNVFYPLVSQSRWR
Format: biochemical
How it was run: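 Full-length USP19 preincubated 30 min at RT with inhibitor (200 μM to 2 μM series, 8–18 points) before adding 500 nM Ubiquitin-Lys-TAMRA substrate.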

SMILES | IC50
COc1ccccc1C1CNCCN1C(=O)N1CCC(O)(Cn2cnc(-c3ccccc3)cc2=O)C2(CCCC2)C1 (stereo not drawn) [Example 271, 3-((10-Hydroxy-7-(2-(2-methoxyphenyl)piperazine-1-carbonyl)-7-azaspiro[4.5]decan-10-yl)methyl)-6-phenylpyrimidin-4(3H)-one] | 50 to 250 µM
COc1cccc(C2CNCCN2C(=O)N2CCC(O)(Cn3cnc(-c4ccccc4)cc3=O)C3(CCCC3)C2)c1 (stereo not drawn) [Example 272, 3-((10-Hydroxy-7-(2-(3-methoxyphenyl)piperazine-1-carbonyl)-7-azaspiro[4.5]decan-10-yl)methyl)-6-phenylpyrimidin-4(3H)-one] | 5 to 50 µM
COc1ccc(C2CNCCN2C(=O)N2CCC(O)(Cn3cnc(-c4ccccc4)cc3=O)C3(CCCC3)C2)cc1 (stereo not drawn) [Example 273, 3-((10-Hydroxy-7-(2-(4-methoxyphenyl)piperazine-1-carbonyl)-7-azaspiro[4.5]decan-10-yl)methyl)-6-phenylpyrimidin-4(3H)-one] | 5 to 50 µM
O=C(N1CCC(O)(Cn2cnc(-c3ccccc3)cc2=O)C2(CCCC2)C1)N1CCNCC1C1CC1 (stereo not drawn) [Example 275, 3-((7-(2-Cyclopropylpiperazine-1-carbonyl)-10-hydroxy-7-azaspiro[4.5]decan-10-yl)methyl)-6-phenylpyrimidin-4(3H)-one] | 5 to 50 µM
O=C(N1CCC(O)(Cn2cnc(-c3ccccc3)cc2=O)C2(CCCC2)C1)N1CCNCC1C1CCC1 (stereo not drawn) [Example 276, 3-((7-(2-Cyclobutylpiperazine-1-carbonyl)-10-hydroxy-7-azaspiro[4.5]decan-10-yl)methyl)-6-phenylpyrimidin-4(3H)-one] | 5 to 50 µM
COCC1CNCCN1C(=O)N1CCC(O)(Cn2cnc(-c3ccccc3)cc2=O)C2(CCCC2)C1 (stereo not drawn) [Example 277, 3-((10-Hydroxy-7-(2-(methoxymethyl)piperazine-1-carbonyl)-7-azaspiro[4.5]decan-10-yl)methyl)-6-phenylpyrimidin-4(3H)-one] | 50 to 250 µM
O=C(N1CC[C@@](O)(Cn2cnc(-c3ccccc3)cc2=O)C2(CCCC2)C1)N1CCNC[C@H]1c1ccccc1 [Example 278, 3-(((S)-10-Hydroxy-7-((R)-2-phenylpiperazine-1-carbonyl)-7-azaspiro[4.5]decan-10-yl)methyl)-6-phenylpyrimidin-4(3H)-one] | < 0.5 µM
CC(=O)N1CCN(C(=O)N2CC[C@@](O)(Cn3cnc(-c4ccccc4)cc3=O)C3(CCCC3)C2)[C@H](c2ccccc2)C1 [Example 279, 3-(((S)-7-((R)-4-Acetyl-2-phenylpiperazine-1-carbonyl)-10-hydroxy-7-azaspiro[4.5]decan-10-yl)methyl)-6-phenylpyrimidin-4(3H)-one] | 0.5 to 5 µM
O=C(N1CCC(O)(Cn2ncc(-c3ccccc3)cc2=O)C2(CCCC2)C1)N1CCOC[C@H]1c1ccccc1 (stereo partly drawn) [Example 280, 2-((10-Hydroxy-7-((R)-3-phenylmorpholine-4-carbonyl)-7-azaspiro[4.5]decan-10-yl)methyl)-5-phenylpyridazin-3(2H)-one] | < 0.5 µM
CN1CCN(C(=O)N2CC[C@@](O)(Cn3cnc(-c4ccccc4)cc3=O)C3(CCCC3)C2)[C@H](c2ccccc2)C1 [Example 281, 3-(((S)-10-Hydroxy-7-((R)-4-methyl-2-phenylpiperazine-1-carbonyl)-7-azaspiro[4.5]decan-10-yl)methyl)-6-phenylpyrimidin-4(3H)-one] | < 0.5 µM
O=C(N1CC[C@@](O)(Cn2cnc(Cl)cc2=O)C2(CCCC2)C1)N1CCOC[C@H]1c1ccc(F)cc1 [Example 282, 6-Chloro-3-(((S)-7-((R)-3-(4-fluorophenyl)morpholine-4-carbonyl)-10-hydroxy-7-azaspiro[4.5]decan-10-yl)methyl)pyrimidin-4(3H)-one] | < 0.5 µM
CN(C)C(=O)c1cn(C[C@]2(O)CCN(C(=O)N3CCOC[C@H]3c3ccccc3)CC2(C)C)c(=O)cc1-c1ccccc1 [Example 283, 1-(((S)-4-Hydroxy-3,3-dimethyl-1-((R)-3-phenylmorpholine-4-carbonyl)piperidin-4-yl)methyl)-N,N-dimethyl-6-oxo-4-phenyl-1,6-dihydropyridine-3-carboxamide] | < 0.5 µM
Cn1nccc1-c1cc(=O)n(C[C@]2(O)CCN(C(=O)N3CCOC[C@H]3c3ccc(F)cc3)CC23CCCC3)cn1 [Example 284, 3-(((S)-7-((R)-3-(4-Fluorophenyl)morpholine-4-carbonyl)-10-hydroxy-7-azaspiro[4.5]decan-10-yl)methyl)-6-(1-methyl-1H-pyrazol-5-yl)pyrimidin-4(3H)-one] | < 0.5 µM
Cn1cc(-c2cc(=O)n(C[C@]3(O)CCN(C(=O)N4CCOC[C@H]4c4ccc(F)cc4)CC34CCCC4)cn2)cn1 [Example 285, 3-(((S)-7-((R)-3-(4-Fluorophenyl)morpholine-4-carbonyl)-10-hydroxy-7-azaspiro[4.5]decan-10-yl)methyl)-6-(1-methyl-1H-pyrazol-4-yl)pyrimidin-4(3H)-one] | < 0.5 µM
CC1(C)CN(C(=O)N2CCOC[C@H]2c2ccccc2)CC[C@@]1(O)Cn1ccc(-c2ccccc2)cc1=O [Example 286] | < 0.5 µM
O=C(N1CC[C@@](O)(Cn2ccc(-c3ccccc3)cc2=O)C2(CCCC2)C1)N1CCNC[C@H]1c1ccccc1 [Example 287, 1-(((S)-10-Hydroxy-7-((R)-2-phenylpiperazine-1-carbonyl)-7-azaspiro[4.5]decan-10-yl)methyl)-4-phenylpyridin-2(1H)-one] | < 0.5 µM

Next, values leading:

IC50 | SMILES
0.5 to 5 µM | O=C(N1CCC(O)(Cn2cnc(-c3ccccc3)cc2=O)C2(CCCC2)C1)N1CCCC1C1CC1 (stereo not drawn) [Example 264, 3-((7-(2-Cyclopropylpyrrolidine-1-carbonyl)-10-hydroxy-7-azaspiro[4.5]decan-10-yl)methyl)-6-phenylpyrimidin-4(3H)-one]
0.5 to 5 µM | O=C(N1CCC(O)(Cn2cnc(-c3ccccc3)cc2=O)C2(CCCC2)C1)N1CCC[C@H]1c1ccon1 (stereo partly drawn) [Example 265, 3-((10-Hydroxy-7-((S)-2-(isoxazol-3-yl)pyrrolidine-1-carbonyl)-7-azaspiro[4.5]decan-10-yl)methyl)-6-phenylpyrimidin-4(3H)-one]
50 to 250 µM | CN(C)C(=O)[C@@H]1CCCN1C(=O)N1CCC(O)(Cn2cnc(-c3ccccc3)cc2=O)C2(CCCC2)C1 (stereo partly drawn) [Example 266, (2S)-1-(10-Hydroxy-10-((6-oxo-4-phenylpyrimidin-1(6H)-yl)methyl)-7-azaspiro[4.5]decane-7-carbonyl)-N,N-dimethylpyrrolidine-2-carboxamide]
50 to 250 µM | O=C(N1CCC(O)(Cn2cnc(-c3ccccc3)cc2=O)C2(CCCC2)C1)N1CCC[C@H]1Cc1cccs1 (stereo partly drawn) [Example 267, 3-((10-Hydroxy-7-((S)-2-(thiophen-2-ylmethyl)pyrrolidine-1-carbonyl)-7-azaspiro[4.5]decan-10-yl)methyl)-6-phenylpyrimidin-4(3H)-one]
50 to 250 µM | O=C(N1CCC(O)(Cn2cnc(-c3ccccc3)cc2=O)C2(CCCC2)C1)N1CCC[C@H]1c1ncn[nH]1 (stereo partly drawn) [Example 268, 3-((7-((S)-2-(1H-1,2,4-Triazol-5-yl)pyrrolidine-1-carbonyl)-10-hydroxy-7-azaspiro[4.5]decan-10-yl)methyl)-6-phenylpyrimidin-4(3H)-one]
50 to 250 µM | Cc1nc([C@@H]2CCCN2C(=O)N2CCC(O)(Cn3cnc(-c4ccccc4)cc3=O)C3(CCCC3)C2)n[nH]1 (stereo partly drawn) [Example 269, 3-((10-Hydroxy-7-((S)-2-(5-methyl-1H-1,2,4-triazol-3-yl)pyrrolidine-1-carbonyl)-7-azaspiro[4.5]decan-10-yl)methyl)-6-phenylpyrimidin-4(3H)-one]
50 to 250 µM | CC(C)c1coc([C@@H]2CCCN2C(=O)N2CCC(O)(Cn3cnc(-c4ccccc4)cc3=O)C3(CCCC3)C2)n1 (stereo partly drawn) [Example 270, 3-((10-Hydroxy-7-((S)-2-(4-isopropyloxazol-2-yl)pyrrolidine-1-carbonyl)-7-azaspiro[4.5]decan-10-yl)methyl)-6-phenylpyrimidin-4(3H)-one]
0.5 to 5 µM | O=C(N1CCC(O)(Cn2cnc(-c3ccccc3)cc2=O)C2(CCCC2)C1)N1CCNCC1c1cccnc1 (stereo not drawn) [Example 274, 3-((10-Hydroxy-7-(2-(pyridin-3-yl)piperazine-1-carbonyl)-7-azaspiro[4.5]decan-10-yl)methyl)-6-phenylpyrimidin-4(3H)-one]
